Data published in patent US9580396B2, “C6-spiro iminothiadiazine dioxides as BACE inhibitors, compositions, and their use” (Merck Sharp & Dohme Corp., priority 2012, dated 2017).

Key:
[1] = target: purified human autoBACE-2 (Homo sapiens (Human), UniProt Q9Y5Z0); experiment: BACE-2 Assay (BACE-HTRF assay); format: biochemical; settings: Ki calculated from IC50 using the Cheng-Prusoff equation; QSY7-EISEVNLDAEFC-Eu-amide substrate, pH 5.0; read-out: BACE2 Ki
Method: Inhibitor IC50s at purified human autoBACE-2 are determined in a time-resolved endpoint proteolysis assay that measures hydrolysis of the QSY7-[…]-Eu-amide FRET peptide substrate (BACE-HTRF assay). […] DMSO is present at 5% final concentration in the assay. Following laser excitation of sample wells at 320 nm, the fluorescence signal at 620 nm is collected for 400 ms following a 50 μs delay on a RUBYstar HTRF plate reader (BMG Labtechnologies). Raw RFU data is normalized to maximum (1.0 nM BACE/DMSO) and minimum (no enzyme/DMSO) RFU values. […] The Ki values are calculated from the IC50 using the Cheng-Prusoff equation.

[2] = target: soluble human BACE1 catalytic domain (Homo sapiens (Human), UniProt P56817); experiment: BACE1 HTRF FRET Assay; format: biochemical; settings: Ki calculated from IC50 using the Cheng-Prusoff equation; QSY7-APPswe-Eu substrate, pH 5.0
From the text: Na^+-Acetate pH 5.0; 1% Brij-35; Glycerol; Dimethyl Sulfoxide (DMSO); Recombinant human soluble BACE1 catalytic domain (>95% pure); APP Swedish mutant peptide substrate (QSY7-APP^swe-Eu): QSY7-EISEVNLDAEFC-Europium-amide.
A homogeneous time-resolved FRET assay can be used to determine IC50 values for inhibitors of the soluble human BACE1 catalytic domain. This assay monitors the increase of 620 nm fluorescence that resulted from BACE1 cleavage of an APPswedish APP^swe mutant peptide FRET substrate (QSY7-EISEVNLDAEFC-Europium-amide). This substrate contains an N-terminal QSY7 moiety that serves as a quencher of the C-terminal Europium fluorophore (620 nm Em). In the absence of enzyme activity, 620 nm fluorescence is low in the assay and increased linearly over 3 hours in the presence of uninhibited BACE1 enzyme Inhibition of BACE1 cleavage of the QSY7-APP^swe-Eu substrate by inhibitors is manifested as a suppression of 620 nm fluorescence.
Varying concentrations of inhibitors at 3× the final desired concentration in a volume of 10 ul are preincubated with purified human BACE1 catalytic domain (3 nM in 10 μl) for 30 minutes at 30° C. in reaction buffer containing 20 mM Na-Acetate pH 5.0, 10% glycerol, 0.1% Brij-35 and 7.5% DSMO. Reactions are initiated by addition of 10 μl of 600 nM QSY7-APP^swe-Eu substrate (200 nM final) to give a final reaction volume of 30 μl in a 384 well Nunc HTRF plate. The reactions are incubated at 30° C. for 1.5 hours. The 620 nm fluorescence is then read on a Rubystar HTRF plate reader (BMG Labtechnologies) using a 50 millisecond delay followed by a 400 millisecond acquisition time window Inhibitor IC50 values are derived from non-linear regression analysis of concentration response curves. Ki values are then calculated from IC50 values using the Cheng-Prusoff equation using a previously determined […] of 8 μM for the QSY7-APP^swe-Eu substrate at BACE1.

Sequence of purified human autoBACE-2 (Q9Y5Z0 63-473): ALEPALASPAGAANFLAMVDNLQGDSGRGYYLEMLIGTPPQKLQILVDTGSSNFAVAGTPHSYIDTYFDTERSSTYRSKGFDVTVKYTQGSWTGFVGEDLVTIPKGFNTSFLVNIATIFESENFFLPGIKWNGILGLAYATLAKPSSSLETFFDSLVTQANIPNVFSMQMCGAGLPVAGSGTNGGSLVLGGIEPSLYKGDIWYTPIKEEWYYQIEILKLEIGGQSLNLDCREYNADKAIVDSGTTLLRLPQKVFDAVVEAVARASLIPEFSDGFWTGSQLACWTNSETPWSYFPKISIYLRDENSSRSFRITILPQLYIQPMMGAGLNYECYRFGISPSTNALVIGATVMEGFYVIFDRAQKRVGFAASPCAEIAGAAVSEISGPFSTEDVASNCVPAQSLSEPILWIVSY
Sequence of soluble human BACE1 catalytic domain (P56817 75-416): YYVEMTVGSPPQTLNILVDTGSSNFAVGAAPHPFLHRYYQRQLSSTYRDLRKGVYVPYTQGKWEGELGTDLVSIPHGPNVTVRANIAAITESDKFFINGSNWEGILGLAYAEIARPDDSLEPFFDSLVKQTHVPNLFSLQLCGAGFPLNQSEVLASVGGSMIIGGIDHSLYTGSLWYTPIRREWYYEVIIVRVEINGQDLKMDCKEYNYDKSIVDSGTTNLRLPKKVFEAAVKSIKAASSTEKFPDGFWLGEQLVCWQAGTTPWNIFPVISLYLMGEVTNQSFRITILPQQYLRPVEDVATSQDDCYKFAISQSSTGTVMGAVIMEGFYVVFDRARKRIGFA

COc1cnc(C(=O)Nc2ccc3c(c2)[C@]2(CCC3)CS(=O)(=O)N(C)C(=N)N2)c(C)c1 [Example 5o]
Ki [1]: 0.017 µM | Ki [2]: 0.119 µM

COc1cnc(C(=O)Nc2ccc3c(c2)[C@]2(CCC3)CS(=O)(=O)N(C)C(=N)N2)c(C)n1 [Example 5p]
Ki [1]: 0.123 µM | Ki [2]: 0.224 µM

Cc1cc(C#N)cnc1C(=O)Nc1ccc2c(c1)[C@]1(CCC2)CS(=O)(=O)N(C)C(=N)N1 [Example 5q]
Ki [1]: 0.017 µM | Ki [2]: 0.009 µM

COc1cnc(C(=O)Nc2ccc3c(c2)[C@]2(CCC3)CS(=O)(=O)N(C)C(=N)N2)cn1 [Example 5r]
Ki [1]: 0.177 µM | Ki [2]: 0.144 µM

CN1C(=N)N[C@@]2(CCCc3ccc(NC(=O)c4cnc(C(F)(F)F)cn4)cc32)CS1(=O)=O [Example 5s]
Ki [1]: 0.685 µM | Ki [2]: 0.253 µM

CN1C(=N)N[C@@]2(CCCc3ccc(NC(=O)c4cnsn4)cc32)CS1(=O)=O [Example 5t]
Ki [1]: 0.056 µM | Ki [2]: 0.264 µM

CN1C(=N)N[C@@]2(CCCc3ccc(NC(=O)c4cc5ccccn5n4)cc32)CS1(=O)=O [Example 5u]
Ki [1]: 0.385 µM | Ki [2]: 1.34 µM

CN1C(=N)N[C@@]2(CCCc3ccc(NC(=O)c4ccc(C(F)(F)F)cn4)cc32)CS1(=O)=O [Example 5v]
Ki [1]: 0.171 µM | Ki [2]: 0.055 µM

CN1C(=N)N[C@@]2(CCCc3ccc(NC(=O)c4ccn(C(F)F)n4)cc32)CS1(=O)=O [Example 5w]
Ki [1]: 0.003 µM | Ki [2]: 0.02 µM
